From article PMC11831560, “Development of the Pyrido[2,3-d]pyrimidin-7(8H)-one Scaffold toward Potent and Selective NUAK1 Inhibitors” (ACS Medicinal Chemistry Letters, 2025)

Assays:
[1] = molecular target: p38g MAPK (Homo sapiens, UniProt P53778); test: Kinase panel radiometric filter binding (33P-ATP); assay type: biochemical
Description: (§1) Table S4: AMPKA kinase activity data (ADP-Glo assay)
(§2) Compound pIC50 (Fold selectivity
(§3) Table S5. Kinase selectivity screening for 9 and 24 at 1 µM against a general kinase panel of 140 targets
(§4) in radiometric filter binding assay using 33P-γ−ATP at the MRC PPU International Centre for Kinase
(§5) Profiling, University of Dundee. pIC50 values were determined for compounds with <20% activity
(§6) Kinase activity s.d. pIC50 activity s.d. pIC50

[2] = molecular target: TLK1 (Homo sapiens, UniProt Q9UKI8); test: Kinase panel radiometric filter binding (33P-ATP); assay type: biochemical
Description: as §1, §2, §3, §4, §5, §6

[3] = molecular target: TBK1 (Homo sapiens, UniProt Q9UHD2); test: Kinase panel radiometric filter binding (33P-ATP); assay type: biochemical
Description: as §1, §2, §3, §4, §5, §6

[4] = molecular target: T1, MARK2 (Homo sapiens, UniProt Q7KZI7); test: Kinase panel radiometric filter binding (33P-ATP); assay type: biochemical; design: % activity remaining: dose or concentration left out as unconfirmed; conditions: for % activity remaining: MARK2
T1 construct: purchased MRC PPU
Description: as §1, §2, §3, §4, §5, §6

[5] = molecular target: IGF-1R (Homo sapiens, UniProt P08069); test: Kinase panel radiometric filter binding (33P-ATP); assay type: biochemical; design: % activity remaining: dose or concentration left out as unconfirmed; conditions: for % activity remaining: IGF-1R
Description: as §1, §2, §3, §4, §5, §6

[6] = molecular target: T2, MARK4 (Homo sapiens, UniProt Q96L34); test: Kinase panel radiometric filter binding (33P-ATP); assay type: biochemical; design: % activity remaining: dose or concentration left out as unconfirmed; conditions: for % activity remaining: MARK4
T2 construct: purchased MRC PPU
T2 sequence (Q96L34 1-752): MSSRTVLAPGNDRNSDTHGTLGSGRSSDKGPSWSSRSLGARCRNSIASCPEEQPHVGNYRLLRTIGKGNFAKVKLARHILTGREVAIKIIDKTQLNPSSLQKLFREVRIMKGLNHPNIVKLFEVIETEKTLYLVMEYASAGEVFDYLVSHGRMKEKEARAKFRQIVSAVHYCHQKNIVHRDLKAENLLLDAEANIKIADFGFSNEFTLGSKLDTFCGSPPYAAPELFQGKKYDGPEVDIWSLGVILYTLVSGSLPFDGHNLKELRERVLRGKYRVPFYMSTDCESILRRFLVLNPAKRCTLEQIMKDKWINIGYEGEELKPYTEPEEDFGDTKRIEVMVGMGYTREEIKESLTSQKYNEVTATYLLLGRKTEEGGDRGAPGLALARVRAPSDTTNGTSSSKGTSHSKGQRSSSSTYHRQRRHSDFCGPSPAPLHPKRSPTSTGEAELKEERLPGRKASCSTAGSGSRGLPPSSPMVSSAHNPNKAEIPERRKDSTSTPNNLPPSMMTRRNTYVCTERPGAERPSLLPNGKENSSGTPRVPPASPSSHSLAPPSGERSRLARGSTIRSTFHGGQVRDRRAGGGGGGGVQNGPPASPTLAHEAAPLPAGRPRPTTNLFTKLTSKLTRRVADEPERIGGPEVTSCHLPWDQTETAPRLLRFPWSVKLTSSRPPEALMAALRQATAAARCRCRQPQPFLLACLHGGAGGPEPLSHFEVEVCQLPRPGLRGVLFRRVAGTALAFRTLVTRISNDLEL
Description: as §1, §2, §3, §4, §5, §6

[7] = molecular target: T3, JAK3 (Homo sapiens, UniProt P52333); test: Kinase panel radiometric filter binding (33P-ATP); assay type: biochemical; design: % activity remaining: dose or concentration left out as unconfirmed; conditions: for % activity remaining: JAK3
T3 sequence (P52333 1-1124): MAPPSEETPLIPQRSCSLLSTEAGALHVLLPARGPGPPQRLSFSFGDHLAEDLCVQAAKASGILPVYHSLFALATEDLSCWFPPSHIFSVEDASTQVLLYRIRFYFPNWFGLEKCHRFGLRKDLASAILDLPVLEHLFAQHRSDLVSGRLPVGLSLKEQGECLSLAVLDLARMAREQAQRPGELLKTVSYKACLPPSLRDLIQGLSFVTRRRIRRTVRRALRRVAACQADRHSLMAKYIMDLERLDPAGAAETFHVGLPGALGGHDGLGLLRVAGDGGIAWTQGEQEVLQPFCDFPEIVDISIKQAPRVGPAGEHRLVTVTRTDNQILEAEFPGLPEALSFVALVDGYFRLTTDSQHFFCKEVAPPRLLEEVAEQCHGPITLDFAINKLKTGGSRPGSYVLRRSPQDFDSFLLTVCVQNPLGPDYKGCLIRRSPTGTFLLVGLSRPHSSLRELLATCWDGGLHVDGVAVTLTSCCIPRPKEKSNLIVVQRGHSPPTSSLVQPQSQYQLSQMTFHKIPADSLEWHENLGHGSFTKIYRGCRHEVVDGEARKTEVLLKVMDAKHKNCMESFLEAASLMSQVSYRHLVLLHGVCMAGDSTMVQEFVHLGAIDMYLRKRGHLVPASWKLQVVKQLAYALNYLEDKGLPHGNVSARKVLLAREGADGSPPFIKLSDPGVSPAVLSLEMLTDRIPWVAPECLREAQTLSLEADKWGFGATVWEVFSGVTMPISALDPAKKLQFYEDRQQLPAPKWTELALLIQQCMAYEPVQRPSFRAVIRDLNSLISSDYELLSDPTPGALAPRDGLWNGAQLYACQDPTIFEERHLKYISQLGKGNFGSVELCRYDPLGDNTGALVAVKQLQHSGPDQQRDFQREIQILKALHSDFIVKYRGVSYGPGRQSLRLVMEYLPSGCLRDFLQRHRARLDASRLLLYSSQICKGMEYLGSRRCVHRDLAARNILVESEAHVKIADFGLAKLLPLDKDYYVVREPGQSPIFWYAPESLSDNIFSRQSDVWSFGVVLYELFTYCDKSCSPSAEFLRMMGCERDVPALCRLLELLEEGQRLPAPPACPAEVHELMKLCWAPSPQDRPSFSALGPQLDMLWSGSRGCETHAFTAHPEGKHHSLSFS
Description: as §1, §2, §3, §4, §5, §6

[8] = design: method as in PMID 24568969; conditions: mice, I.V. dosing 5 mgkg^–1; cited from earlier work
[9] = test system: CDK4/D1; design: method as in Reddy et al. 28; conditions: ref Reddy et al. 28; cited from earlier work
[10] = Microsomal stability, human; assay type: in vitro ADME; conditions: human liver microsomes; read-out: HLM t1/2
Description: All single point assay determinations carried out in duplicate.
ADMET and PK experimental methods
Microsomal stability: analysis was performed by Cyprotex Discovery. […]

[11] = test system: CDK6/D1; design: method as in Reddy et al. 28; conditions: ref Reddy et al. 28; cited from earlier work

T1 sequence (Q7KZI7 whole entry): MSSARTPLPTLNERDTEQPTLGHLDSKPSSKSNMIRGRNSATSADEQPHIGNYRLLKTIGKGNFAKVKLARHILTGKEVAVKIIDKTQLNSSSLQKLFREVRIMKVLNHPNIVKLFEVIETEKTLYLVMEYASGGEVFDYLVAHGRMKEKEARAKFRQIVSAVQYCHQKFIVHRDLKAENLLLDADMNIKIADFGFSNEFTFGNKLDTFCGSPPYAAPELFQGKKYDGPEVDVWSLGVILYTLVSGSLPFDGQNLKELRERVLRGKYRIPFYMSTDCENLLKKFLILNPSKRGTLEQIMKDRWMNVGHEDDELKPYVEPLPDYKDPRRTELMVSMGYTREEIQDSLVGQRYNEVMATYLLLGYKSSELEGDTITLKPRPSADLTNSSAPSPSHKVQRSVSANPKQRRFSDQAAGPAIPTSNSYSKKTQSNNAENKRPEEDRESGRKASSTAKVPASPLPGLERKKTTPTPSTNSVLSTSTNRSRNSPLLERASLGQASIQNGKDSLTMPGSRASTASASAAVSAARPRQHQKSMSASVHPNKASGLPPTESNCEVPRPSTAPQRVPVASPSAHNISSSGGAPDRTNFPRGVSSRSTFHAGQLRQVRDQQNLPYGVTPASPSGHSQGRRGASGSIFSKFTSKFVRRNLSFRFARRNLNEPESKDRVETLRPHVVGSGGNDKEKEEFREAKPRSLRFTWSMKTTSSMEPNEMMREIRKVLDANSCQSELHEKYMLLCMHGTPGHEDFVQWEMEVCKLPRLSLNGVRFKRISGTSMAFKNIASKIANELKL
IGF-1R, sequence (P08069 31-1367, species assumed): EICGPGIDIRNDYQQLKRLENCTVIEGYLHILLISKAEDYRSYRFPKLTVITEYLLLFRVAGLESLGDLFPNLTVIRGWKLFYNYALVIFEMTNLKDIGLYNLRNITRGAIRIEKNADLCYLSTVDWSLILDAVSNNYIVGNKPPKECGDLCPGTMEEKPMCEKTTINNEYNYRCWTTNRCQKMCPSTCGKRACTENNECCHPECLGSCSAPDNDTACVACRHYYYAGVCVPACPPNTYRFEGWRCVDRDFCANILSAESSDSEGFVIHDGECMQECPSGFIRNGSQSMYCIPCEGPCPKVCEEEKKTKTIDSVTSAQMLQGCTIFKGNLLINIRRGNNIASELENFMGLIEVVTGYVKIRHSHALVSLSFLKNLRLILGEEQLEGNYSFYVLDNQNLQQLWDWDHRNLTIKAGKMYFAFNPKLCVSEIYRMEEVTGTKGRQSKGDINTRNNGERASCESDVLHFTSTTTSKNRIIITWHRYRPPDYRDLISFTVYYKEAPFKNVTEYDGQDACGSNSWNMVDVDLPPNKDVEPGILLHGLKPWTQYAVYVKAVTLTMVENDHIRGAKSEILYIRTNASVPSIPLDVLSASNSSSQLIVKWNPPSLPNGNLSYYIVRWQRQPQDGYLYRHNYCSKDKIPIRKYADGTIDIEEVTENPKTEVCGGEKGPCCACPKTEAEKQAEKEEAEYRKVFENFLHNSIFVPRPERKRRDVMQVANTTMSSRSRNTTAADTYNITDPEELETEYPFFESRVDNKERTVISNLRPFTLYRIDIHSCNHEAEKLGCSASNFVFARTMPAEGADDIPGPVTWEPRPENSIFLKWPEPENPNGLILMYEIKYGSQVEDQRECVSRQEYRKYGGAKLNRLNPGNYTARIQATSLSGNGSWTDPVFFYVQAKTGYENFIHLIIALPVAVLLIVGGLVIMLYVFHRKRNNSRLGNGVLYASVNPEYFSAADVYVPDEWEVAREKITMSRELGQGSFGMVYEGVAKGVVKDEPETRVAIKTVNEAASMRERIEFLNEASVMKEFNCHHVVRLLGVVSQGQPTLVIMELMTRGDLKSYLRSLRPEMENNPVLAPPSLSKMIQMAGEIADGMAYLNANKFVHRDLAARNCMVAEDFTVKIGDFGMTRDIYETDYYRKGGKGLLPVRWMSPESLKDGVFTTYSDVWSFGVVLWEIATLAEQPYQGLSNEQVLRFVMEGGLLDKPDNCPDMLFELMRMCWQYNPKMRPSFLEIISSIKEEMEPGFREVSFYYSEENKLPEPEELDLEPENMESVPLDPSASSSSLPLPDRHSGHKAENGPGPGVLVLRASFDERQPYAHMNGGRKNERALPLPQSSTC
p38g MAPK, sequence (P53778 whole entry): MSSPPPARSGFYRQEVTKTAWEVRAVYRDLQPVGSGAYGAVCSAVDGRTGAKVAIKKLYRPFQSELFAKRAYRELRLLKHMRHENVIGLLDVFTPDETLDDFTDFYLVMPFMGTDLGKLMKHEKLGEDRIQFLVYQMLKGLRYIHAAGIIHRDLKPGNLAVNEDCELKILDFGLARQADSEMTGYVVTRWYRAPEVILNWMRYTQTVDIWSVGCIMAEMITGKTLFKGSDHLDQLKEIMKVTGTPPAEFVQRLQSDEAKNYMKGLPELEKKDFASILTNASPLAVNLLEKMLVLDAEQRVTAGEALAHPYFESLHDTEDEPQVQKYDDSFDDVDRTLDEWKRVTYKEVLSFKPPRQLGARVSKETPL
TLK1, sequence (Q9UKI8 whole entry): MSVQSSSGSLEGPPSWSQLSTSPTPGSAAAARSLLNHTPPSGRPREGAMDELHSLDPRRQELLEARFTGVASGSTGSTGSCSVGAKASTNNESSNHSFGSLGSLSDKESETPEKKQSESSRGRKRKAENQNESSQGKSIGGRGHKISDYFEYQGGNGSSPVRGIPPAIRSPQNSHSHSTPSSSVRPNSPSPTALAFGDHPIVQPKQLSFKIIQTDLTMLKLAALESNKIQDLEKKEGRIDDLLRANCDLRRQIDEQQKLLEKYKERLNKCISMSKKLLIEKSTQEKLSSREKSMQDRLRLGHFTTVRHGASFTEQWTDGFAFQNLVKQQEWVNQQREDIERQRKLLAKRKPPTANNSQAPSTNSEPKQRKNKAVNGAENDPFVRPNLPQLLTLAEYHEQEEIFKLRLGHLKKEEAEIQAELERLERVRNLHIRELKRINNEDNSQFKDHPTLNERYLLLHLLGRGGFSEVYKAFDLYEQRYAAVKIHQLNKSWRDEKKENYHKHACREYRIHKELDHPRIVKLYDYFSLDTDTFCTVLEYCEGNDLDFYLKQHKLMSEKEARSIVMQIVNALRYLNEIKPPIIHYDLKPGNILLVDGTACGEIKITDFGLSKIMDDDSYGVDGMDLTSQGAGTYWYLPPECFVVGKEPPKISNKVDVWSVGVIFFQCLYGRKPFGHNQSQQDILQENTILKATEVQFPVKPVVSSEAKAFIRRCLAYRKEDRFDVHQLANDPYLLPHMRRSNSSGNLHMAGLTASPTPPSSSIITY
TBK1, sequence (Q9UHD2 whole entry): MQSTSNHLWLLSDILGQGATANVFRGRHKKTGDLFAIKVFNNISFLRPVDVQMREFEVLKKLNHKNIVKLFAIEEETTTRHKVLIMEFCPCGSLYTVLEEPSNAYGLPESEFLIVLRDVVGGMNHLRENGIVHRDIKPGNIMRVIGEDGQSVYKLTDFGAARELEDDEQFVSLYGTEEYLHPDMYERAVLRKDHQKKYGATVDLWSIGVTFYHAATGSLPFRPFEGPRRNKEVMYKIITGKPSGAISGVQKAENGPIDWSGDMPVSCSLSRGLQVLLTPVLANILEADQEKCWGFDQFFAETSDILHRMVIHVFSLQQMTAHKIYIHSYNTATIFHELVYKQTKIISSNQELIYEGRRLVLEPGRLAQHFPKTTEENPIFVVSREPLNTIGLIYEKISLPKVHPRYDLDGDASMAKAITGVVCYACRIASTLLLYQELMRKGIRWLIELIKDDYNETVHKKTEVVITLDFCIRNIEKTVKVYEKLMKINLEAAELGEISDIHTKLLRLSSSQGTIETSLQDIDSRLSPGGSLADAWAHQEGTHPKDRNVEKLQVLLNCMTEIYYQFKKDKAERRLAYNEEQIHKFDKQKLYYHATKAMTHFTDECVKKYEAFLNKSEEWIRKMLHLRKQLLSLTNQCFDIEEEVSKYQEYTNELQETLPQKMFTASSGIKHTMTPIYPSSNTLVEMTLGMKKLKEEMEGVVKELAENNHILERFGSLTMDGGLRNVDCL

With `CN1C2CC1CN(c1ccc(Nc3ncc4ccn(CC5CCOCC5)c4n3)cc1)C2` [Compound 24] the “% activity remaining” value [1] was 92%, the “% activity remaining” value [2] was 86% and the “% activity remaining” value [3] was 41%. For the same compound, the “% activity remaining” value [4] was 101%, the “% activity remaining” value [5] was 104% and the “% activity remaining” value [6] was 95%. The “% activity remaining” value [7] was 7%, the “JAK3 pIC50” value ([7]; radiometric filter binding panel) was 7.6 and the IC50 ([7]; radiometric filter binding panel, read-out: JAK3 pIC50 (converted)) was 0.0234 µM.

For `CN1CCN(c2ccc(Nc3ncc4cc(C#N)c(=O)n(C5CCCC5)c4n3)cc2)CC1` [Compound 3, Narazaciclib, reference compound], the “plasma half-life t1/2” value [8] is listed as 90 min, the “CDK4/D1 pIC50” value [9] is listed as 8.4 and the half-life at 1 µM [10] is listed as 6.9 min. For the same compound, the “CDK6/D1 pIC50” value [11] was 8.0.

In the case of `Cc1cc(=O)n(C2CCCC2)c2nc(Nc3ccc(N4CC5CC(C4)N5C)cc3)ncc12` [Compound 9], the “% activity remaining” value [1] is reported as 97%, the “% activity remaining” value [2] is reported as 59% and the “% activity remaining” value [3] is reported as 66%. The “% activity remaining” value [4] was 98%, the inhibition at 1 µM ([4]; at 1 μM, radiometric filter binding assay, Dundee, read-out: MARK2 single point % inhibition) was 2% and the “% activity remaining” value [5] was 18%. For the same compound, the IC50 ([5]; radiometric filter binding panel, read-out: IGF-1R pIC50 (converted)) was 1.05 µM, the “% activity remaining” value [6] was 49% and the inhibition at 1 µM ([6]; at 1 μM, radiometric filter binding assay, Dundee, read-out: MARK4 single point % inhibition) was 51%. The “% activity remaining” value [7] was 22%.
